Laboratory results taken from patent publication US20260001886A1, “ENPP1 INHIBITORS I” (RE Ventures I, LLC, priority 2024, published 2026).
pEC50, pKd: −log10 of the molar value.

Key:
[1] = target: T1, human CA-I (CA1) (Homo sapiens (Human), UniProt P00915); experiment: biochemical
Protocol: (§1) Cytiva Biacore S200, T200 and 3000 machines were used for all SPR experiments. […] For carbonic anhydrases, data were collected at a constant temperature of 25° C. Human CA-I (CA1) or human CA-II (CA2) was captured via standard EDC/NHS protocol on a Biacore CM5 chip using standard protocols in HBS-N buffer (10 mM HEPES (pH 7.4), 150 mM NaCl) at ˜2000 RU. The experiments were run in PBS buffer containing 0.05% Tween 20 and 3% DMSO. All compounds were initially screened at concentrations ranging from 23 nM to 50 µM or 4.6 nM to 10 µM, injecting from the lowest to highest concentrations and adjusting appropriately for each compound for repeat experiments. Scrubber 2 (Biologic software) was used to process and analyse SPR data. […] Data for the inhibitors were referenced to those for a blank surface and blank injections to normalise for non-specific binding and drift. A DMSO calibration was run to remove excluded volume effect of binding responses between reference and target surface.

[2] = target: Human ENPP1 (Homo sapiens (Human), UniProt P22413)
Protocol: ENPP1 catalyses the hydrolysis of ATP into AMP+PPi. AMP production was monitored using Bellbrooks Transcreener AMP/GMP TR-FRET assay kit (Cat No. 3020-10K) according to the manufacturer's instructions. The assay was run with 50 mM Tris pH 7.5, 5 mM MgCl2, 150 mM NaCl, 0.005% Tween20 and distilled H2O. Antibody and tracer were diluted to 2 nM. […] Mouse ENPP1 was run at 15 pM with ATP at 400 nM. AMP produced in the assay by ENPP1 activity competes with a far-red tracer labelled AMP bound to an AMP specific antibody resulting in a decrease in TR-FRET. ENPP1 inhibition reduces AMP production and increases the TR-FRET signal.

[3] = target: ENPP1 expressed by MCF-7 cells (Homo sapiens (Human), UniProt P22413); experiment: cell-based
Protocol: ENPP1 inhibition was assessed in a human cellular co-culture assay using THP1-Dual interferon reporter cells from InvivoGen (Cat No. thpd-nfis), see Goswami et al., 2022, and MCF-7 cancer cells.
MCF-7 cells were seeded at 10,000 cells/well in a 96 well plate and 24 h later compounds were added in DMEM+GlutaMAX media+2% Hyclone FBS, with a final DMSO of 0.2%. 2′3′-cGAMP was added at a final concentration of 10 μM and incubated for 30 mins at 37° C. 20,000 THP-1 cells were added per well and incubated for 48 h. IFN response was measured by Quanti-Luc Gold according to the manufacturer's instructions using 15 μL Quanti-Luc Gold per well. Luminescence was measured on an EnSight reader (PerkinElmer).

[4] = target: T1, human CA-I (CA1); experiment: Surface plasmon resonance, carbonic anhydrase I; conditions: 25° C., CM5 chip
Protocol: as §1

[5] = target: T2, human CA-II (CA2) (Homo sapiens (Human), UniProt P00918); experiment: Surface plasmon resonance, carbonic anhydrase II; conditions: 25° C., CM5 chip
Protocol: as §1

[6] = target: T2, human CA-II (CA2); experiment: biochemical
Protocol: as §1

T1 sequence (P00915 whole entry): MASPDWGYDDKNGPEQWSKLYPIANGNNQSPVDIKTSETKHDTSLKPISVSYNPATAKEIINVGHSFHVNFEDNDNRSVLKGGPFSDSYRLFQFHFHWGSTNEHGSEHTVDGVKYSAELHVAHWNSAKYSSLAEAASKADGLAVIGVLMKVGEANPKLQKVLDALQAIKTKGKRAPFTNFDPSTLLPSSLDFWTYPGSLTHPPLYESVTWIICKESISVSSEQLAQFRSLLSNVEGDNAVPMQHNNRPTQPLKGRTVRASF
Chain of Human ENPP1 (P22413 whole entry): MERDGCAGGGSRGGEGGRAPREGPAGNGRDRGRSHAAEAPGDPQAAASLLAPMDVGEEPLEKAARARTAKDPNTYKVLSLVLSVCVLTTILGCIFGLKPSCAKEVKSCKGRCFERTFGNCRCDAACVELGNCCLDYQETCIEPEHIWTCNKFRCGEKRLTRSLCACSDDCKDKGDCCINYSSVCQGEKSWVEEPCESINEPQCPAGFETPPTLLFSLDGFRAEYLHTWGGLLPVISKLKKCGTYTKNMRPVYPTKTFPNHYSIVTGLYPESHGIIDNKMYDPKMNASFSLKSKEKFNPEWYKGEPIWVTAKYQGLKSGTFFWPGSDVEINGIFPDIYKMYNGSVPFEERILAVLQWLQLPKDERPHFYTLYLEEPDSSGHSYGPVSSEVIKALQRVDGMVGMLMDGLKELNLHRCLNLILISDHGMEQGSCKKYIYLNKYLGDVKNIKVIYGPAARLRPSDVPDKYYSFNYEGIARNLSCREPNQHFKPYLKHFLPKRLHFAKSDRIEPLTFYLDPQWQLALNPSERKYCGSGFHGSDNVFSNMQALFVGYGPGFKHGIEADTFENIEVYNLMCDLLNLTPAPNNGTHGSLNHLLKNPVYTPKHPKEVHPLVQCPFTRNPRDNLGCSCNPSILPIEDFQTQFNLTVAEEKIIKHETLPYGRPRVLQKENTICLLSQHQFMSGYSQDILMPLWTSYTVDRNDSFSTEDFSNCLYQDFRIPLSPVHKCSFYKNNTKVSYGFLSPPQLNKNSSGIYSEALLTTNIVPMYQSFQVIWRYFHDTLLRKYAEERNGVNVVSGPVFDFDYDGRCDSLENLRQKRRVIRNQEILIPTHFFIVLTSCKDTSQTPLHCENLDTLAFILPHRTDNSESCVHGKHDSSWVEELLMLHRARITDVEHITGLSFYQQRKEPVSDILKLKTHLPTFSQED
Chain of ENPP1 expressed by MCF-7 cells (P22413 whole entry): as above

Row | pKd [1] | pEC50 [2] | pEC50 [3] | pKd [6] | SMILES | further results
1 |  | 8.60 | 6.70 |  | CC(C)c1cn(Cc2ccc([S@](C)(=N)=O)c(F)c2)c2cc(C3CC3)nn2c1=O (single isomer, unassigned) [Compound 72] | 
2 | < 1.00 |  |  |  | CC(C)c1cn(C[C@H]2C[C@H]3C[C@@H]2CN3S(N)(=O)=O)c2nc(C(F)(F)F)nn2c1=O (racemic) [Compound 36, rac-(1R,4R,5R)-5-((6-isopropyl-7-oxo-2-(trifluoromethyl)-[1,2,4]triazolo[1,5-a]pyrimidin-4(7H)-yl)methyl)-2-azabicyclo[2.2.1]heptane-2-sulfonamide] | 
3 | < 1.00 |  |  | < 1.00 | CCc1nc2n(Cc3ccc([S@](C)(=N)=O)cc3)cc(C(C)C)c(=O)n2n1 (single isomer, unassigned) [Compound 31B] | 
4 |  | 9.00 | 7.40 |  | CC[S@](=N)(=O)c1ccc(Cn2cc(C(C)C)c(=O)n3nc(C4CC4)nc23)cc1 (single isomer, unassigned) [Compound 56A] | 
5 |  |  |  | 4.50 | CNc1nc(S(N)(=O)=O)ccc1Cn1cc(C(C)C)c(=O)n2nc(C3CC3)nc12 [Compound 29, 5-((2-cyclopropyl-6-isopropyl-7-oxo-[1,2,4]triazolo[1,5-a]pyrimidin-4(7H)-yl)methyl)-6-(methylamino)pyridine-2-sulfonamide] | 
6 |  |  |  | < 1.00 | CC(C)c1cn(Cc2ccc(S(C)(=N)=O)cc2)c2cc(C3CC3)nn2c1=O (racemic) [3 Rac] | 
7 |  |  |  | < 1.00 | CC(C)c1cn(Cc2ccc([S@](C)(=N)=O)cc2)c2cc(C3CC3)nn2c1=O (single isomer, unassigned) [Compound 3A] | 
8 | < 1.00 |  |  | < 1.00 | Cc1cc2n(Cc3ccc(S(C)(=N)=O)cc3)cc(C(C)C)c(=O)n2n1 (racemic) [9 Rac] | 
9 |  | 8.50 | 6.60 |  | Cc1cc(Cn2cc(C(C)C)c(=O)n3nc(C4CC4)nc23)ccc1S(C)(=N)=O (stereo not shown) [Compound 71, 2-Cyclopropyl-6-isopropyl-4-(3-methyl-4-(S-methylsulfonimidoyl)benzyl)-[1,2,4]triazolo[1,5-a]pyrimidin-7(4H)-one] | 
10 |  | 8.90 | 7.40 |  | CC(C)c1cn(Cc2ccc(S(=N)(=O)C3CC3)cc2)c2nc(C3CC3)nn2c1=O (stereo not shown) [Compound 54, 4-(4-(Cyclopropanesulfonimidoyl)benzyl)-2-cyclopropyl-6-isopropyl-[1,2,4]triazolo[1,5-a]pyrimidin-7(4H)-one] | 
11 |  | 7.90 |  |  | CC(C)c1cn(Cc2c(F)cc(S(C)(=N)=O)cc2F)c2nc(C3CC3)nn2c1=O (stereo not shown) [Compound 26, 2-cyclopropyl-4-(2,6-difluoro-4-(S-methylsulfonimidoyl)benzyl)-6-isopropyl-[1,2,4]triazolo[1,5-a]pyrimidin-7(4H)-one] | CA1 human SPR pKD [4]: 3.0; CA2 human SPR pKD [5]: 3.0
12 | < 1.00 |  |  | < 1.00 | CCc1nc2n(Cc3ccc(S(C)(=N)=O)cc3)cc(C(C)C)c(=O)n2n1 (racemic) [31 Rac] | 
13 |  | 8.80 | 7.40 |  | Cc1cc(Cn2cc(C(C)C)c(=O)n3nc(C4CC4)nc23)ccc1[S@](C)(=N)=O (single isomer, unassigned) [Compound 65] | 

The next lines start with the compound.

Row | SMILES | pKd [1] | pEC50 [2] | pEC50 [3] | pKd [6] | further results
14 | CC(C)c1cn(C[C@@H]2C[C@@H]3C[C@H]2CN3S(N)(=O)=O)c2ncnn2c1=O [Compound 37, (1R,4R,5R)-5-((6-isopropyl-7-oxo-[1,2,4]triazolo[1,5-a]pyrimidin-4(7H)-yl)methyl)-2-azabicyclo[2.2.1]heptane-2-sulfonamide] | < 1.00 |  |  |  | 
15 | CC(C)c1nn2c(=O)c(C(C)C)cn(C[C@H]3C[C@H]4C[C@@H]3CN4S(N)(=O)=O)c2c1F [Compound 43, (1S,4S,5S)-5-((3-Fluoro-2,6-diisopropyl-7-oxopyrazolo[1,5-a]pyrimidin-4(7H)-yl)methyl)-2-azabicyclo[2.2.1]heptane-2-sulfonamide] |  | 8.40 |  |  | CA1 human SPR pKD [4]: 3.0; CA2 human SPR pKD [5]: 4.8
16 | CCc1nc2n(Cc3ccc([S@@](C)(=N)=O)cc3)cc(C(C)C)c(=O)n2n1 (single isomer, unassigned) [Compound 31A] | < 1.00 |  |  | < 1.00 | 
17 | CC(C)c1cn(Cc2ccc([S@@](C)(=N)=O)cc2)c2cc(C3CC3)nn2c1=O (single isomer, unassigned) [Compound 3B] |  |  |  | < 1.00 | 
18 | COc1c(C2CC2)nn2c(=O)c(C(C)C)cn(C[C@H]3C[C@H]4C[C@@H]3CN4S(N)(=O)=O)c12 [Compound 44, (1S,4S,5S)-5-((2-Cyclopropyl-6-isopropyl-3-methoxy-7-oxopyrazolo[1,5-a]pyrimidin-4(7H)-yl)methyl)-2-azabicyclo[2.2.1]heptane-2-sulfonamide] |  | 8.30 |  |  | CA1 human SPR pKD [4]: 3.0; CA2 human SPR pKD [5]: 4.2
19 | CC(C)c1cn(Cc2ccc(S(N)(=O)=O)c(-c3ccccc3)n2)c2nc(C3CC3)nn2c1=O [Compound 27, 6-((2-cyclopropyl-6-isopropyl-7-oxo-[1,2,4]triazolo[1,5-a]pyrimidin-4(7H)-yl)methyl)-2-phenylpyridine-3-sulfonamide] |  | 8.20 | 6.60 |  | CA1 human SPR pKD [4]: 3.0; CA2 human SPR pKD [5]: 3.0
20 | Cc1nc2n(C[C@H]3C[C@H]4C[C@@H]3CN4S(N)(=O)=O)cc(-c3cccc(F)c3)c(=O)n2n1 [Compound 6, (1S,4S,5S)-5-((6-(3-fluorophenyl)-2-methyl-7-oxo-[1,2,4]triazolo[1,5-a]pyrimidin-4(7H)-yl)methyl)-2-azabicyclo[2.2.1]heptane-2-sulfonamide] |  | 7.00 |  |  | CA1 human SPR pKD [4]: 3.0; CA2 human SPR pKD [5]: 3.6
21 | CC(C)c1cn(Cc2ccc([S@@](=N)(=O)C3CC3)cc2)c2nc(C3CC3)nn2c1=O (single isomer, unassigned) [Compound 55] |  | 9.50 | 7.60 |  | 
22 | CC(C)c1nc2n(Cc3ccc(S(C)(=N)=O)cc3)cc(C(C)C)c(=O)n2n1 (stereo not shown) [Compound 30, 2,6-diisopropyl-4-(4-(S-methylsulfonimidoyl)benzyl)-[1,2,4]triazolo[1,5-a]pyrimidin-7(4H)-one] |  | 8.40 | 7.10 |  | CA1 human SPR pKD [4]: <1; CA2 human SPR pKD [5]: <1
23 | CC(C)c1cn(Cc2ccc([S@@](C)(=N)=O)cc2)c2nc(CC(F)(F)F)nn2c1=O (single isomer, unassigned) [Compound 32B] | < 1.00 |  |  | < 1.00 | 
24 | Cc1cc(Cn2cc(C(C)C)c(=O)n3nc(C4CC4)cc23)ccc1[S@@](C)(=N)=O (single isomer, unassigned) [Compound 58A] |  | 8.90 | 6.70 |  | 
25 | Cc1cc2n(Cc3ccc(S(C)(=N)=O)cc3)cc(C(C)C)c(=O)n2n1 (single isomer, unassigned) [Compound 9A] | < 1.00 |  |  | < 1.00 | 
